Measured values as given in the NIST ThermoML archive (doi:10.1016/j.jct.2019.03.040).
Numbers after ± are expanded uncertainties.

Key:
[1] = molar heat capacity at constant pressure; settings: 101.33 kPa, Small sample (50 mg) DSC
[2] = Liquid; for Critical pressure / Critical temperature: Resistive pulse heating; for thermal diffusivity: 101.33 kPa, Laser flash apparatus

CC(=O)CCC(=O)O [4-oxopentanoic acid]
[1], Metastable liquid
Settings	molar heat capacity at constant pressure [J/K/mol]
302.62 K	245.93 ± 6
303.12 K	246.16 ± 6
303.62 K	246.05 ± 6
304.12 K	246.28 ± 6
304.62 K	246.16 ± 6
305.12 K	246.51 ± 6
305.62 K	246.4 ± 6
306.12 K	246.86 ± 6
306.62 K	246.86 ± 6
307.12 K	246.86 ± 6
307.62 K	246.86 ± 6
308.12 K	246.98 ± 6
308.62 K	247.44 ± 6
309.12 K	247.09 ± 6
309.62 K	247.33 ± 6
310.12 K	247.44 ± 6
310.62 K	248.02 ± 6
311.12 K	247.91 ± 6
311.62 K	247.91 ± 6
312.12 K	247.91 ± 6
312.62 K	247.91 ± 6
313.12 K	247.56 ± 6
313.62 K	247.91 ± 6
314.12 K	248.25 ± 6
314.62 K	248.37 ± 6
315.12 K	248.49 ± 6
315.62 K	248.83 ± 6.2
316.12 K	248.95 ± 6.2
316.62 K	249.53 ± 6.2
317.12 K	249.65 ± 6.2
317.62 K	249.76 ± 6.2
318.12 K	250.46 ± 6.2
318.62 K	250.23 ± 6.2
319.12 K	250 ± 6.2
319.62 K	250.34 ± 6.2
320.12 K	250.11 ± 6.2
320.62 K	250.46 ± 6.2
321.12 K	250.34 ± 6.2
321.62 K	250.46 ± 6.2
322.12 K	250.58 ± 6.2
322.62 K	250.46 ± 6.2
323.12 K	251.16 ± 6.2
323.62 K	251.04 ± 6.2
324.12 K	251.27 ± 6.2
324.62 K	251.51 ± 6.2
325.12 K	251.27 ± 6.2
325.62 K	251.39 ± 6.2
326.12 K	251.74 ± 6.2
326.62 K	252.2 ± 6.2
327.12 K	251.85 ± 6.2
327.62 K	251.85 ± 6.2
328.12 K	251.85 ± 6.2
328.62 K	252.09 ± 6.2
329.12 K	252.32 ± 6.2
329.62 K	251.85 ± 6.2
330.12 K	252.55 ± 6.2
330.62 K	252.55 ± 6.2
331.12 K	252.67 ± 6.2
331.62 K	253.25 ± 6.2
332.12 K	253.6 ± 6.3
332.62 K	253.83 ± 6.3
333.12 K	254.06 ± 6.3
333.62 K	254.29 ± 6.3
334.12 K	254.06 ± 6.3
334.62 K	254.18 ± 6.3
335.12 K	254.41 ± 6.3
335.62 K	254.41 ± 6.3
336.12 K	254.87 ± 6.3
336.62 K	254.64 ± 6.3
337.12 K	255.11 ± 6.3
337.62 K	255.45 ± 6.3
338.12 K	255.22 ± 6.3
338.62 K	255.22 ± 6.3
339.12 K	255.57 ± 6.3
339.62 K	255.8 ± 6.3
340.12 K	256.03 ± 6.3
340.62 K	256.5 ± 6.3
341.12 K	256.73 ± 6.3
341.62 K	257.08 ± 6.3
342.12 K	257.43 ± 6.3
342.62 K	257.54 ± 6.3
343.12 K	257.66 ± 6.3
343.62 K	257.89 ± 6.3
344.12 K	257.89 ± 6.3
344.62 K	257.31 ± 6.3
345.12 K	257.43 ± 6.3
345.62 K	257.54 ± 6.3
346.12 K	257.89 ± 6.3
346.62 K	258.24 ± 6.3
347.12 K	258.59 ± 6.4
347.62 K	258.7 ± 6.4
348.12 K	258.59 ± 6.4
348.62 K	258.82 ± 6.4
349.12 K	258.94 ± 6.4
349.62 K	258.82 ± 6.4
350.12 K	258.94 ± 6.4
350.62 K	259.17 ± 6.4
351.12 K	259.17 ± 6.4
351.62 K	259.29 ± 6.4
352.12 K	260.21 ± 6.4
352.62 K	260.1 ± 6.4
353.12 K	259.87 ± 6.4
353.62 K	260.33 ± 6.4
354.12 K	260.45 ± 6.4
354.62 K	259.75 ± 6.4
355.12 K	260.21 ± 6.4
355.62 K	260.45 ± 6.4
356.12 K	260.79 ± 6.4
356.62 K	260.79 ± 6.4
357.12 K	260.56 ± 6.4
357.62 K	260.79 ± 6.4
358.12 K	260.45 ± 6.4
358.62 K	260.56 ± 6.4
359.12 K	261.03 ± 6.4
359.62 K	260.68 ± 6.4
360.12 K	260.79 ± 6.4
360.62 K	261.03 ± 6.4
361.12 K	261.38 ± 6.4
361.62 K	261.61 ± 6.4
362.12 K	261.96 ± 6.4
362.62 K	262.07 ± 6.4
363.12 K	262.07 ± 6.4
363.62 K	262.07 ± 6.4
364.12 K	262.88 ± 6.4
364.62 K	262.77 ± 6.4
365.12 K	263.12 ± 6.5
365.62 K	263.7 ± 6.5
366.12 K	264.39 ± 6.5
366.62 K	264.39 ± 6.5
367.12 K	263.93 ± 6.5
367.62 K	263.47 ± 6.5
368.12 K	263.12 ± 6.5
368.62 K	263.12 ± 6.5
369.12 K	263.47 ± 6.5
369.62 K	263.47 ± 6.5
370.12 K	263.7 ± 6.5
370.62 K	263.7 ± 6.5
371.12 K	263.93 ± 6.5
371.62 K	264.05 ± 6.5
372.12 K	264.28 ± 6.5
372.62 K	264.05 ± 6.5
373.12 K	264.28 ± 6.5
373.62 K	264.28 ± 6.5
374.12 K	264.51 ± 6.5

[2]
Settings	Critical pressure [kPa]	Critical temperature [K]
–	5310 ± 220	766 ± 12

CCOC(=O)CCC(C)=O [ethyl levulinate]
[1], Liquid
Settings	molar heat capacity at constant pressure [J/K/mol]
302.98 K	275.22 ± 6.8
303.48 K	275.79 ± 6.8
303.98 K	276.51 ± 6.8
304.48 K	276.37 ± 6.8
304.98 K	275.65 ± 6.8
305.48 K	276.08 ± 6.8
305.98 K	275.65 ± 6.8
306.48 K	276.08 ± 6.8
306.98 K	276.95 ± 6.8
307.48 K	277.24 ± 6.8
307.98 K	277.67 ± 6.8
308.48 K	277.52 ± 6.8
308.98 K	277.38 ± 6.8
309.48 K	277.67 ± 6.8
309.98 K	277.96 ± 6.8
310.48 K	278.53 ± 6.8
310.98 K	278.82 ± 6.8
311.48 K	277.96 ± 6.8
311.98 K	278.24 ± 6.8
312.48 K	277.24 ± 6.8
312.98 K	278.53 ± 6.8
313.48 K	278.82 ± 6.8
313.98 K	279.25 ± 6.8
314.48 K	279.25 ± 6.8
314.98 K	279.25 ± 6.8
315.48 K	278.53 ± 6.8
315.98 K	279.25 ± 6.8
316.48 K	278.68 ± 6.8
316.98 K	278.97 ± 6.8
317.48 K	279.69 ± 6.9
317.98 K	279.4 ± 6.8
318.48 K	279.83 ± 6.9
318.98 K	279.69 ± 6.9
319.48 K	279.83 ± 6.9
319.98 K	279.54 ± 6.9
320.48 K	280.55 ± 6.9
320.98 K	280.98 ± 6.9
321.48 K	280.7 ± 6.9
321.98 K	279.97 ± 6.9
322.48 K	280.55 ± 6.9
322.98 K	280.84 ± 6.9
323.48 K	281.42 ± 6.9
323.98 K	281.13 ± 6.9
324.48 K	281.42 ± 6.9
324.98 K	281.56 ± 6.9
325.48 K	281.27 ± 6.9
325.98 K	281.99 ± 6.9
326.48 K	282.57 ± 6.9
326.98 K	282.14 ± 6.9
327.48 K	282.43 ± 6.9
327.98 K	282.57 ± 6.9
328.48 K	283.29 ± 6.9
328.98 K	283.15 ± 6.9
329.48 K	282.86 ± 6.9
329.98 K	283.29 ± 6.9
330.48 K	283.87 ± 6.9
330.98 K	284.01 ± 6.9
331.48 K	284.01 ± 6.9
331.98 K	284.16 ± 6.9
332.48 K	284.44 ± 6.9
332.98 K	284.16 ± 6.9
333.48 K	284.3 ± 6.9
333.98 K	284.01 ± 6.9
334.48 K	284.88 ± 6.9
334.98 K	285.74 ± 7.1
335.48 K	285.6 ± 7.1
335.98 K	285.89 ± 7.1
336.48 K	285.6 ± 7.1
336.98 K	285.89 ± 7.1
337.48 K	285.74 ± 7.1
337.98 K	285.6 ± 7.1
338.48 K	286.17 ± 7.1
338.98 K	286.32 ± 7.1
339.48 K	286.32 ± 7.1
339.98 K	286.03 ± 7.1
340.48 K	286.32 ± 7.1
340.98 K	285.74 ± 7.1
341.48 K	286.17 ± 7.1
341.98 K	286.46 ± 7.1
342.48 K	286.75 ± 7.1
342.98 K	285.89 ± 7.1
343.48 K	286.61 ± 7.1
343.98 K	286.9 ± 7.1
344.48 K	287.76 ± 7.1
344.98 K	288.34 ± 7.1
345.48 K	287.47 ± 7.1
345.98 K	288.63 ± 7.1
346.48 K	288.19 ± 7.1
346.98 K	287.9 ± 7.1
347.48 K	288.05 ± 7.1
347.98 K	288.48 ± 7.1
348.48 K	288.48 ± 7.1
348.98 K	288.19 ± 7.1
349.48 K	289.2 ± 7.1
349.98 K	289.2 ± 7.1
350.48 K	289.35 ± 7.1
350.98 K	289.2 ± 7.1
351.48 K	289.63 ± 7.1
351.98 K	289.2 ± 7.1
352.48 K	289.78 ± 7.1
352.98 K	290.5 ± 7.1
353.48 K	289.78 ± 7.1
353.98 K	290.36 ± 7.1
354.48 K	290.21 ± 7.1
354.98 K	289.92 ± 7.1
355.48 K	289.92 ± 7.1
355.98 K	289.78 ± 7.1
356.48 K	289.92 ± 7.1
356.98 K	291.08 ± 7.1
357.48 K	290.93 ± 7.1
357.98 K	290.64 ± 7.1
358.48 K	290.93 ± 7.1
358.98 K	290.79 ± 7.1
359.48 K	291.51 ± 7.2
359.98 K	292.09 ± 7.2
360.48 K	291.65 ± 7.2
360.98 K	292.09 ± 7.2
361.48 K	292.52 ± 7.2
361.98 K	291.51 ± 7.2
362.48 K	292.66 ± 7.2
362.98 K	292.81 ± 7.2
363.48 K	293.82 ± 7.2
363.98 K	293.53 ± 7.2
364.48 K	293.67 ± 7.2
364.98 K	294.25 ± 7.2
365.48 K	294.39 ± 7.2
365.98 K	295.4 ± 7.2
366.48 K	294.54 ± 7.2
366.98 K	295.83 ± 7.2
367.48 K	295.55 ± 7.2
367.98 K	295.98 ± 7.2
368.48 K	295.83 ± 7.2
368.98 K	296.84 ± 7.2
369.48 K	296.84 ± 7.2
369.98 K	296.27 ± 7.2
370.48 K	296.99 ± 7.2
370.98 K	296.27 ± 7.2
371.48 K	296.55 ± 7.2
371.98 K	296.84 ± 7.2
372.48 K	296.84 ± 7.2
372.98 K	296.84 ± 7.2
373.48 K	296.99 ± 7.2
373.98 K	297.13 ± 7.2

[2]
Settings	thermal diffusivity [m2/s]
303.15 K	7.9e-08 ± 4.2e-09
313.15 K	7.8e-08 ± 4.2e-09
323.15 K	7.7e-08 ± 4.1e-09
333.15 K	7.6e-08 ± 4.1e-09
343.15 K	7.5e-08 ± 4e-09
353.15 K	7.4e-08 ± 4e-09
363.15 K	7.25e-08 ± 3.9e-09
373.15 K	7.15e-08 ± 3.8e-09

[2]
Settings	Critical pressure [kPa]	Critical temperature [K]
–	2970 ± 90	669 ± 7
